In PubChem BioAssay AID256 (DTP/NCI, 2004):
Several values for one entry are separate records, joined by “and”; a condition that tells them apart may be missing. Identical values can stand only once. Inconclusive results and toxic doses are left out. Rule for the calls: active = survival T/C of 150% or more; inactive = T/C below 125% in these data.

Test system: CD2F1 mice, L1210 leukemia ip, survival T/C
Assay: NCI In Vivo Anticancer Drug Screen. Data for tumor model L1210 Leukemia (intraperitoneal) in CD2F1 (CDF1) mice
Conditions: endpoint: mean survival time, higher = longer survival
Summary of the method: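 Each value reflects a quotient of treated over vehicle control outcomes in mice with a transplanted tumor.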

[1] = dose: 200.0 mg/kg/injection, schedule: Q04DX002 (ip), vehicle: saline with Tween-80
[2] = dose: 400.0 mg/kg/injection, schedule: Q04DX002 (ip), vehicle: saline with Tween-80
[3] = dose: 100.0 mg/kg/injection, schedule: Q04DX003 (ip), vehicle: saline with Tween-80
[4] = dose: 200.0 mg/kg/injection, schedule: Q04DX003 (ip), vehicle: saline with Tween-80
[5] = dose: 400.0 mg/kg/injection, schedule: Q04DX003 (ip), vehicle: saline with Tween-80
[6] = dose: 100.0 mg/kg/injection, schedule: Q01DX009 (ip), vehicle: saline with Tween-80
[7] = dose: 200.0 mg/kg/injection, schedule: Q01DX009 (ip), vehicle: saline with Tween-80
[8] = dose: 400.0 mg/kg/injection, schedule: Q01DX009 (ip), vehicle: saline with Tween-80
[9] = dose: 25.0 mg/kg/injection, schedule: Q04DX003 (ip), vehicle: saline with Tween-80
[10] = dose: 50.0 mg/kg/injection, schedule: Q04DX003 (ip), vehicle: saline with Tween-80
[11] = dose: 100.0 mg/kg/injection, schedule: Q04DX002 (ip), vehicle: saline with Tween-80

Measured: T/C

C1CCC(C2CCCC[N-]2)[N-]C1.C1CCC(C2CCCC[N-]2)[N-]C1.O=N[O-].O=N[O-].[Ru+4] (stereo not drawn)
inactive: dose: 3.13 mg/kg/injection, schedule: Q04DX003 (ip), vehicle: distilled water + Tween-80 90 % of control | dose: 6.25 mg/kg/injection, schedule: Q04DX003 (ip), vehicle: distilled water + Tween-80 95 % of control | dose: 12.5 mg/kg/injection, schedule: Q04DX003 (ip), vehicle: distilled water + Tween-80 95 % of control | dose: 25.0 mg/kg/injection, schedule: Q04DX003 (ip), vehicle: distilled water + Tween-80 93 % of control | dose: 50.0 mg/kg/injection, schedule: Q04DX003 (ip), vehicle: distilled water + Tween-80 92 % of control | dose: 100.0 mg/kg/injection, schedule: Q04DX003 (ip), vehicle: distilled water + Tween-80 90 % of control | dose: 200.0 mg/kg/injection, schedule: Q04DX003 (ip), vehicle: distilled water + Tween-80 90 % of control

CC(C)[S][Pb]([c]1ccccc1)([c]1ccccc1)[c]1ccccc1
inactive: dose: 1.25 mg/kg/injection, schedule: Q01DX009 (ip), vehicle: gum acacia 93 % of control | dose: 2.5 mg/kg/injection, schedule: Q01DX009 (ip), vehicle: gum acacia 98 % of control | dose: 5.0 mg/kg/injection, schedule: Q01DX009 (ip), vehicle: gum acacia 96 % of control

COc1ccc(NC(=O)Nc2cccc([N+](=O)[O-])c2OC)cc1
inactive: [1] 86 % of control | [2] 96 % of control

O=C(O)C(=O)O.O=C(O)C(=O)O.[Th]
inactive: dose: 200.0 mg/kg/injection, schedule: Q01DX001 (ip), vehicle: saline 95 % of control | dose: 400.0 mg/kg/injection, schedule: Q01DX001 (ip), vehicle: saline 97 % of control

CCCCc1nc2c(O)ccc(O)c2nc1C
inactive: dose: 18.75 mg/kg/injection, schedule: Q01DX009 (ip), vehicle: other 96 % of control | dose: 37.5 mg/kg/injection, schedule: Q01DX009 (ip), vehicle: other 94 % of control | dose: 75.0 mg/kg/injection, schedule: Q01DX009 (ip), vehicle: other 90 % of control

C[n+]1c(O)c(C(=O)CCl)n2cc([N+](=O)[O-])ccc21
inactive: dose: 12.5 mg/kg/injection, schedule: Q01DX009 (ip), vehicle: acetone 95 % of control | dose: 25.0 mg/kg/injection, schedule: Q01DX009 (ip), vehicle: acetone 101 % of control | dose: 50.0 mg/kg/injection, schedule: Q01DX009 (ip), vehicle: acetone 90 % of control

O/N=C(/CN1CCOCC1)c1ccc(Cl)cc1
inactive: dose: 50.0 mg/kg/injection, schedule: Q01DX009 (ip), vehicle: saline 100 % of control | dose: 100.0 mg/kg/injection, schedule: Q01DX009 (ip), vehicle: saline 97 % of control | dose: 200.0 mg/kg/injection, schedule: Q01DX009 (ip), vehicle: saline 103 % of control

C=C(C)CS(=O)[O-].[C-]#[O+].[C-]#[O+].[Fe+6].[c-]1[c-][c-][cH-][c-]1
inactive: dose: 6.25 mg/kg/injection, schedule: Q04DX002 (ip), vehicle: saline 97 % of control | dose: 12.5 mg/kg/injection, schedule: Q04DX002 (ip), vehicle: saline 97 % of control | dose: 25.0 mg/kg/injection, schedule: Q04DX002 (ip), vehicle: saline 97 % of control

Cc1cc2nc(C(=C(c3nc4cc(C)c(C)cc4[nH]3)c3nc4cc(C)c(C)cc4[nH]3)c3nc4cc(C)c(C)cc4[nH]3)[nH]c2cc1C
inactive: [3] 97 % of control | [4] 94 % of control | [5] 89 % of control

NC(=O)c1ncn(C2OC(CO)C(O)C2O)c1O (stereo not drawn)
inactive: dose: 12.5 mg/kg/injection, schedule: Q01DX009 (ip), vehicle: Klucel (hydroxypropylcellulose) (HPC) 122 % of control | dose: 25.0 mg/kg/injection, schedule: Q01DX009 (ip), vehicle: Klucel (hydroxypropylcellulose) (HPC) 113 % of control and 120 % of control | dose: 200.0 mg/kg/injection, schedule: Q01DX009 (ip), vehicle: Klucel (hydroxypropylcellulose) (HPC) 116 % of control and 106 % of control | dose: 400.0 mg/kg/injection, schedule: Q01DX009 (ip), vehicle: Klucel (hydroxypropylcellulose) (HPC) 120 % of control and 93 % of control and 110 % of control

CN1CCN(C(=S)S)CC1
inactive: dose: 12.5 mg/kg/injection, schedule: Q01DX009 (ip), vehicle: saline with Tween-80 100 % of control | dose: 25.0 mg/kg/injection, schedule: Q01DX009 (ip), vehicle: saline with Tween-80 95 % of control | dose: 50.0 mg/kg/injection, schedule: Q01DX009 (ip), vehicle: saline with Tween-80 100 % of control

C=C1C(=O)O[C@@H]2/C=C(/C)[C@@]3(O)C=C[C@](C)(C[C@@H](OC(=O)/C(=C\C)COC(C)=O)[C@@H]12)O3
inactive: dose: 6.0 mg/kg/injection, schedule: Q01DX009 (ip), vehicle: saline with Tween-80 88 % of control | dose: 8.0 mg/kg/injection, schedule: Q01DX009 (ip), vehicle: saline with Tween-80 94 % of control | dose: 12.0 mg/kg/injection, schedule: Q01DX009 (ip), vehicle: saline with Tween-80 94 % of control | dose: 18.0 mg/kg/injection, schedule: Q01DX009 (ip), vehicle: saline with Tween-80 98 % of control | dose: 27.0 mg/kg/injection, schedule: Q01DX009 (ip), vehicle: saline with Tween-80 93 % of control

CSCCCNC(=O)c1csc(CCNC(=O)c2ccccc2)n1
inactive: [6] 108 % of control | [7] 101 % of control | [8] 101 % of control

O=C(C=C(C(F)(F)F)C(F)(F)F)c1ccco1
inactive: dose: 12.5 mg/kg/injection, schedule: Q04DX003 (ip), vehicle: saline with Tween-80 105 % of control | [9] 102 % of control | [10] 94 % of control

CCOP(=O)(CC(=O)O)c1ccccc1 (stereo not drawn)
inactive: dose: 25.0 mg/kg/injection, schedule: Q04DX002 (ip), vehicle: saline with Tween-80 96 % of control | dose: 50.0 mg/kg/injection, schedule: Q04DX002 (ip), vehicle: saline with Tween-80 100 % of control | [11] 92 % of control

CCOC(=O)c1c[nH]c2cc(OCC3CC3)c(OCC3CC3)cc2c1=O
inactive: [3] 95 % of control | [4] 95 % of control | [5] 93 % of control

Cc1cccc[n+]1CC(=O)c1ccc(-c2ccc(C(=O)C[n+]3ccccc3C)cc2)cc1
inactive: dose: 0.15 mg/kg/injection, schedule: Q04DX003 (ip), vehicle: Klucel (hydroxypropylcellulose) (HPC) 94 % of control | dose: 0.3 mg/kg/injection, schedule: Q04DX003 (ip), vehicle: Klucel (hydroxypropylcellulose) (HPC) 95 % of control | dose: 0.6 mg/kg/injection, schedule: Q04DX003 (ip), vehicle: Klucel (hydroxypropylcellulose) (HPC) 97 % of control

Cc1cc(C)c(O)c(C(=O)CC2CC(=O)NC(=O)C2)c1
inactive: [6] 100 % of control | [3] 95 % of control | [7] 105 % of control | [4] 97 % of control | [8] 101 % of control | [5] 95 % of control

CC(=O)[C@@]12O[C@@H]1C[C@H]1[C@@H]3CCC4=CC(=O)CC[C@]4(C)[C@H]3CC[C@@]12C
inactive: [11] 96 % of control | [1] 101 % of control | [2] 96 % of control

CN(/N=C/c1ccccc1)C(=S)Nc1ccccc1
inactive: dose: 31.25 mg/kg/injection, schedule: Q04DX003 (ip), vehicle: Klucel (hydroxypropylcellulose) (HPC) 101 % of control | dose: 62.5 mg/kg/injection, schedule: Q04DX003 (ip), vehicle: Klucel (hydroxypropylcellulose) (HPC) 103 % of control | dose: 125.0 mg/kg/injection, schedule: Q04DX003 (ip), vehicle: Klucel (hydroxypropylcellulose) (HPC) 100 % of control

O=C(/C=C\c1ccnc2ccccc12)c1ccc([N+](=O)[O-])cc1
inactive: dose: 12.5 mg/kg/injection, schedule: Q01DX009 (ip), vehicle: other 94 % of control | dose: 25.0 mg/kg/injection, schedule: Q01DX009 (ip), vehicle: other 89 % of control | dose: 50.0 mg/kg/injection, schedule: Q01DX009 (ip), vehicle: other 89 % of control | dose: 100.0 mg/kg/injection, schedule: Q01DX009 (ip), vehicle: other 92 % of control | [3] 97 % of control | dose: 200.0 mg/kg/injection, schedule: Q01DX009 (ip), vehicle: other 97 % of control | [4] 94 % of control | [5] 91 % of control

Cc1cc(C)c(CCc2c(C)cc(C)cc2C)c(C)c1
inactive: [9] 96 % of control | [10] 98 % of control | [6] 89 % of control | [3] 100 % of control | [7] 96 % of control | [8] 93 % of control

CCOC(=O)CC/C(C)=N\N(C)C
inactive: [6] 103 % of control | [7] 97 % of control | [8] 96 % of control

O=C(Cl)OC1CS(=O)(=O)CC1O (stereo not drawn)
inactive: [3] 98 % of control | [4] 98 % of control | [5] 101 % of control
